Assay results published in patent publication US6448294B1, “Biphenyl compounds and their use as oestrogenic agents” (Aventis Pharma S.A., priority 1996, dated 2002).

Molecular target: T1, recombinant human oestrogen receptor (Homo sapiens, UniProt P03372)
T1 construct: made in house; host or cells: SF9 insect cells (ATCC CRL1711), baculovirus
T1 sequence (P03372 1-595): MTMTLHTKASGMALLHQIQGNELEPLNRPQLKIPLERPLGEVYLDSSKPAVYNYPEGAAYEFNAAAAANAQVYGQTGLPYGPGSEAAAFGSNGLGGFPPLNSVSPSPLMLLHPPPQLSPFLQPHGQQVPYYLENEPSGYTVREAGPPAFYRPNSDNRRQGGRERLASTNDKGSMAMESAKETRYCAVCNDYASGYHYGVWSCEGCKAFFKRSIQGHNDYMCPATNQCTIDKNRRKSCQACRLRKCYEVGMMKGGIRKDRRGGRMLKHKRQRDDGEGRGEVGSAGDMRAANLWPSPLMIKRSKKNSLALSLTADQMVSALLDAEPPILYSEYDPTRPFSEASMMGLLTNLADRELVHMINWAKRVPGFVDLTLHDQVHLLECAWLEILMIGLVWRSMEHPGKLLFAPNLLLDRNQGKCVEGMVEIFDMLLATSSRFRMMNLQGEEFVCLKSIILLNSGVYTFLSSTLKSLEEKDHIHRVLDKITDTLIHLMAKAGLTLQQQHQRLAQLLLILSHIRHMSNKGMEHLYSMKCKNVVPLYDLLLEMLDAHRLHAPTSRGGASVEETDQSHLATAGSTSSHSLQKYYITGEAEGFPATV
Assay: Human oestrogen receptor (HOR) competitive binding with tritiated oestradiol, relative bond affinity (RBA)
Details: RBA=100(CH)/(CX), incubation at 0° C. for 24 hours, cytosolic extract of SF9 cells
Description: A cytosolic extract of SF9 cells containing the recombinant human oestrogen receptor is obtained by overexpression in an insect-Baculovirus cell system, according to the general methodology described by N. R. WEBB et al. (Journal of Methods in Cell and Molecular Biology, (1990) Vol.2 No. 4, 173-188) and the application of which is described for the expression of human hormonal receptors, for example the human glucocorticoid receptor (G. SRINIVASAN et al. Molecular Endocrinology (1990) vol 4 No. 2 209-216).
The BaculoGold Transfection Kit (PharMingen, reference 21000K) is used to generate the recombinant baculovirus containing the cDNA fragment described in the expression vector HEGO by L. TORA et al. (The EMBO Journal (1989) vol. 8 No. 7 1981-1986), containing the region coding for the wild-type human oestrogen receptor with a glycine in position 400. […]
The supernatant is incubated at 0° C. for 24 hours with a constant concentration (T) of tritiated oestradiol in the presence of increasing concentrations of either unlabelled oestradiol (0-1000×10^−9M), or of unlabelled product to be tested (0-25000×10^−9M). The concentration of bound tritiated oestradiol (B) is then measured in each incubate by the technique of adsorption with carbon dextran. […]
The relative bond affinity (RBA) of the test product is calculated by the equation: RBA=100(CH)/(CX).

For CN(C)CCOc1ccc(-c2c(-c3ccc(O)cc3)ccc3cc(O)ccc23)cc1 [Example 1, 5-[-4-[2-(Dimethylamino)ethoxy]phenyl] 6-(4-Hydroxyphenyl) 2-Naphthalenol], the “Relative bond affinity (RBA), HOR, oestradiol = 100, 24 hours” value was 28.
For Oc1ccc(-c2ccc3cc(O)ccc3c2Cl)cc1 [Example 2, 5-Chloro-6-(4-hydroxyphenyl)-2-naphthalenol], the “Relative bond affinity (RBA), HOR, oestradiol = 100, 24 hours” value was 49.
